Source: patent US20120316161A1, “NOVEL ANTIVIRAL COMPOUNDS” (KATHOLIEKE UNIVERSITEIT LEUVEN, priority 2009, published 2012)
Read-outs that look alike come from different tables or passages of the source.

What was measured:
[1] = Cytotoxicity in mock-infected MT-4 cells (MTT); assay type: cell-based; conditions: human, mock-infected MT-4 cells
Protocol: A rapid and automated assay procedure was used for the in vitro evaluation of anti-HIV agents. An HTLV-1 transformed T4-cell line MT-4, which was previously shown to be highly susceptible to and permissive for HIV infection, served as the target cell line. Inhibition of the HIV-induced cytopathogenic effect was used as the end point. The viability of both HIV-and mock-infected cells was assessed spectrophotometrically via in situ reduction of 3-(4,5-dimethylthiazol-2-yl)-2,5-diphenyltetrazolium bromide (MTT). […] The percent protection achieved by the compound in HIV-infected cells was calculated by the following formula: […]
whereby (ODT)HIV is the optical density measured with a given concentration of the test compound in HIV-infected cells; (ODC)HIV is the optical density measured for the control untreated HIV-infected cells; (ODC)MOCK is the optical density measured for the control untreated mock-infected cells; all optical density values were determined at 540 nm. […] The ratio of CC50 to EC50 was defined as the selectivity index (SI).

[2] = target: T1, LEDGF-integrase interaction (His6-tagged HIV-1 integrase, flag-LEDGF/p75) (Human immunodeficiency virus type 1 group M subtype B, UniProt P04585); assay: AlphaScreen assay of LEDGF-integrase interaction inhibition; assay type: binding; conditions: compound at 100 μM
T1 construct: His6-tagged HIV-1 integrase; made in house
Protocol: The AlphaScreen assay was performed according to the manufacturer's protocol (Perkin Elmer, Benelux). Reactions were performed in 25 μl final volume in 384-well Optiwell™ microtiter plates (Perkin Elmer). The reaction buffer contained 25 mM Tris-HCl (pH 7.4), 150 mM NaCl, 1 mM MgCl2, 0.01% (v/v) Tween-20 and 0.1% (w/v) bovine serum albumin. His6-tagged integrase (300 nM final concentration) was incubated with the compounds for 30 min at 4° C. The compounds were added at varying concentrations spanning a wide range from 0.1 up to 100 μM. Afterwards 100 nM flag-LEDGF/p75 was added and incubation was prolonged for an additional hour at 4° C. Subsequently 5 μl of Ni-chelate—coated acceptor beads and 5 μl anti-flag donor beads were added to a final concentration of 20 μg/ml of both beads. Proteins and beads were incubated for 1 h at 30° C. in order to allow association to occur. Exposure of the reaction to direct light was omitted as much as possible and the emission of light from the acceptor beads was measured in the EnVision plate reader (Perkin Elmer, Benelux) and analyzed using the EnVision manager software. IN/DNA binding was analyzed in a similar setting using His6-tagged integrase (1 μM final concentration) and an oligodeoxynucleotide mimicking the IN ELISA oligonucleotide substrate (30 nM final concentration). Counterscreens with JPO2 or PogZ, respectively, were essentially performed as described previously. Expression and purification of recombinant proteins: His6-tagged HIV-1 integrase, 3xflag-tagged LEDGF/p75, MBP-JPO2 and MBP-PogZ were purified for AlphaScreen applications as described previously.

HIV = assay: microbe, parasite or virus in culture; assay type: cell-based; conditions: Human immunodeficiency virus 1, MT4
Protocol: A rapid and automated assay procedure was used for the in vitro evaluation of anti-HIV agents. An HTLV-1 transformed T4-cell line MT-4, which was previously shown to be highly susceptible to and permissive for HIV infection, served as the target cell line. Inhibition of the HIV-induced cytopathogenic effect was used as the end point. The viability of both HIV-and mock-infected cells was assessed spectrophotometrically via in situ reduction of 3-(4,5-dimethylthiazol-2-yl)-2,5-diphenyltetrazolium bromide (MTT). The 50% cytotoxic concentration (CC50 in μg/ml) was defined as the concentration of compound that reduced the absorbance of the mock-infected control sample by 50%. The percent protection achieved by the compound in HIV-infected cells was calculated by the following formula: […]
whereby (ODT)HIV is the optical density measured with a given concentration of the test compound in HIV-infected cells; (ODC)HIV is the optical density measured for the control untreated HIV-infected cells; (ODC)MOCK is the optical density measured for the control untreated mock-infected cells; all optical density values were determined at 540 nm. The dose achieving 50% protection according to the above formula was defined as the 50% inhibitory concentration (EC50 in μg/ml or μM). The ratio of CC50 to EC50 was defined as the selectivity index (SI). […] Examples of inhibition of cell proliferation by particular compounds of the invention can be found by looking at the respective CC50 values in the MT-4 cell line. Cells: MT-4 cells (Miyoshi et al., 1982) were grown and maintained in RPMI 1640medium supplemented with 10% heat-inactivated fetal calf serum, 2 mM 1-glutamine, 0.1% sodium bicarbonate, and 20æg of gentamicin per ml.
Viruses: The HIV-1 (NL4.3) strain (Adachi et al., 1986) is a molecular clone obtained from the National Institutes of Health (Bethesda, Md.). The HIV-2 (ROD) (Barr, -Sinoussi et al., 1983) stock was obtained from culture supernatant of HIV-2 infected cell lines.

[3] = 50% protection of HIV-infected MT-4 cells, read-out: EC50

SMILES	CC50 [1]	Alpha screen % (100 μM) [2]	EC50 (HIV; [3])	EC50 (HIV)
CCCC(C(=O)O)c1c(C)nc2ccnn2c1-c1ccc(C)cc1 (centres unmarked) [CPD-57, 2-(5-methyl-7-p-tolylpyrazolo[1,5-a]pyrimidin-6-yl)pentanoic acid]	> 250 µM	84%	192 µM	
CCCC(C(=O)O)c1c(C)nc2cc(C(C)(C)C)nn2c1-c1ccccc1 (centres unmarked) [CPD-58, 2-(2-tert-butyl-5-methyl-7-phenylpyrazolo[1,5-a]pyrimidin-6-yl)pentanoic acid]	121 µM	77%	27.3 µM	
CCCC(C(=O)O)c1c(C)nc2cc(C(C)(C)C)nn2c1-c1ccc(C)cc1 (centres unmarked) [CPD-59, 2-(2-tert-butyl-5-methyl-7-p-tolylpyrazolo[1,5-a]pyrimidin-6-yl)pentanoic acid]	> 250 µM	92%	14.3 µM	
CCCC(C(=O)O)c1c(C)nc2c(Br)c(C(C)(C)C)nn2c1-c1ccc(C)cc1 (centres unmarked) [CPD-60, 2-(3-bromo-2-tert-butyl-5-methyl-7-p-tolylpyrazolo[1,5-a]pyrimidin-6-yl)pentanoic acid]	56.3 µM	92%	2.39 µM	
CCCC(C(=O)O)c1c(C)nc2cc(-c3ccccc3)nn2c1-c1ccc(C)cc1 (centres unmarked) [CPD-61, 2-(5-methyl-2-phenyl-7-p-tolylpyrazolo[1,5-a]pyrimidin-6-yl)pentanoic acid]	104 µM	94%	30.2 µM	
CCCC(C(=O)O)c1c(C)nc2cc(C(C)(C)C)nn2c1-c1ccc2cc[nH]c2c1 (centres unmarked) [CPD-65, 2-(2-tert-butyl-7-(1H-indol-6-yl)-5-methylpyrazolo[1,5-a]pyrimidin-6-yl)pentanoic acid]	46.5 µM	30%		5.69 µM
CCCC(C(=O)O)c1c(C)nc2cc(C(C)(C)C)nn2c1-c1ccc2occc2c1 (centres unmarked) [CPD-66, 2-(7-(benzofuran-5-yl)-2-tert-butyl-5-methylpyrazolo[1,5-a]pyrimidin-6-yl)pentanoic acid]	99 µM	92%	10.5 µM	
CCCC(C(=O)O)c1c(C)nc2cc(C(C)(C)C)nn2c1-c1ccc2sccc2c1 (centres unmarked) [CPD-67, 2-(7-(benzo[b]thiophen-5-yl)-2-tert-butyl-5-methylpyrazolo[1,5-a]pyrimidin-6-yl)pentanoic acid]	70 µM	93%	2.94 µM	
CCCC(C(=O)O)c1c(C)nc2cc(C(C)(C)C)nn2c1-c1ccc2c(c1)CCO2 (centres unmarked) [CPD-68, 2-(2-tert-butyl-7-(2,3-dihydrobenzofuran-5-yl)-5-methylpyrazolo[1,5-a]pyrimidin-6-yl)pentanoic acid]	101 µM	93%	6.42 µM	
CCCC(C(=O)O)c1c(C)nc2cc(C(C)(C)C)nn2c1-c1ccc(Cl)cc1 (centres unmarked) [CPD-69, 2-(2-tert-butyl-7-(4-chlorophenyl)-5-methylpyrazolo[1,5-a]pyrimidin-6-yl)pentanoic acid]	40.3 µM	93%		1.61 µM
CCCC(C(=O)O)c1c(C)nc2cc(C(C)(C)C)nn2c1-c1ccc(C)c(C)c1 (centres unmarked) [CPD-70, 2-(2-tert-butyl-7-(3,4-dimethylphenyl)-5-methylpyrazolo[1,5-a]pyrimidin-6-yl)pentanoic acid]	> 125 µM	93%	72.1 µM	
CCCC(C(=O)O)c1c(C)nc2cc(C(C)(C)C)nn2c1-c1ccc(CC)cc1 (centres unmarked) [CPD-71, 2-(2-tert-butyl-7-(4-ethylphenyl)-5-methylpyrazolo[1,5-a]pyrimidin-6-yl)pentanoic acid]	73 µM	74%	2.8 µM	
CCCC(C(=O)O)c1c(C)nc2cc(C(C)(C)C)nn2c1-c1ccc2c(c1)OCCCO2 (centres unmarked) [CPD-72, 2-(2-tert-butyl-7-(3,4-dihydro-2H-benzo[b][1,4]dioxepin-7-yl)-5-methylpyrazolo[1,5-a]pyrimidin-6-yl)pentanoic acid]	> 125 µM	93%	22.6 µM	
CCCc1cc2nc(C)c(C(CCC)C(=O)O)c(-c3ccc(C)cc3)n2n1 (centres unmarked) [CPD-77, 2-(5-methyl-2-propyl-7-p-tolylpyrazolo[1,5-a]pyrimidin-6-yl)pentanoic acid]	203 µM	83%	28.1 µM	
CCCC(C(=O)O)c1c(C)nc2cc(-c3ccco3)nn2c1-c1ccc(C)cc1 (centres unmarked) [CPD-78, 2-(2-(furan-2-yl)-5-methyl-7-p-tolylpyrazolo[1,5-a]pyrimidin-6-yl)pentanoic acid]	127 µM	83%	21.2 µM	
CCCC(C(=O)O)c1c(C)nc2cc(C(C)(C)C)nn2c1-c1ccc(Cl)cc1F (centres unmarked) [CPD-79, 2-(2-tert-butyl-7-(4-chloro-2-fluorophenyl)-5-methylpyrazolo[1,5-a]pyrimidin-6-yl)pentanoic acid]	76 µM	75%	1.89 µM	
CCCC(C(=O)O)c1c(C)nc2cc(C(C)(C)C)nn2c1-c1ccc(C)cc1F (centres unmarked) [CPD-80, 2-(2-tert-butyl-7-(2-fluoro-4-methylphenyl)-5-methylpyrazolo[1,5-a]pyrimidin-6-yl)pentanoic acid]	192 µM	75%	4.08 µM	
Cc1ccc(-c2c(C(CCCC(F)(F)F)C(=O)O)c(C)nc3cc(C(C)(C)C)nn23)cc1 (centres unmarked) [CPD-81, 2-(2-tert-butyl-7-p-tolyl-5-methylpyrazolo[1,5-a]pyrimidin-6-yl)-6,6,6-trifluorohexanoic acid]	56 µM	65%	16.4 µM	
CCCC(C(=O)O)c1c(C)nc2cc(C(C)(C)C)nn2c1-c1ccc2c(c1)CCCO2 (centres unmarked) [CPD-85]	125 µM	76%	2.54 µM	
CCC(C)C(C(=O)O)c1c(C)nc2cc(C(C)(C)C)nn2c1-c1ccc(C)cc1 (centres unmarked) [CPD-86, 2-(2-tert-butyl-7-p-tolyl-5-methylpyrazolo[1,5-a]pyrimidin-6-yl)-3-methylpentanoic acid]	77 µM			
CCCC(C(=O)O)c1c(C)nc2c(Cl)c(C(C)(C)C)nn2c1-c1ccc(C)cc1 (centres unmarked) [CPD-87, 2-(2-tert-butyl-3-chloro-7-p-tolyl-5-methylpyrazolo[1,5-a]pyrimidin-6-yl)pentanoic acid]	38.3 µM	67%	2.33 µM	
CCCC(C(=O)O)c1c(C)nc2c(nc(C)n2C)c1-c1ccc(C)cc1 (centres unmarked) [CPD-105, 2-(2,3,5-Trimethyl-7-p-tolyl-3H-imidazo[4,5-b]pyridin-6-yl)pentanoic acid]	235 µM		23.2 µM	
CCCC(C(=O)O)c1c(C)nc2nc(C(C)C)nn2c1-c1ccc(C)cc1 (centres unmarked) [CPD-121, 2-(2-isopropyl-5-methyl-7-p-tolyl-[1,2,4]-triazolo[1,5-a]pyrimidin-6-yl)pentanoic acid]	> 250 µM		124 µM	
